Laboratory results reported in patent publication US20220386582A1, “METHOD AND DEVICE TO TRAP ACARIDS” (DOMOBIOS, priority 2015, published 2022).

What was measured:
Format in all cases: in vivo
[1] = test system: Tyrophagus putrescentiae; assay: Toxicity, indirect contact (inhalation, 24 hours)
Description: (§1) FIG. 10 is a set of graphs showing the percentage of dead mites after 24 hours of inhalation of lavandulol at different concentrations (0.18 μL, 3 μL or 8 μL of pure solution) or water (Ctrl). Four species of mites were tested: Dermatophagoides pteronyssinus (DP), Dermatophagoides farinae (DF), Tyrophagus putrescentiae (TP) and Acarus siro (AS).
(§2) The species studied were two species of dust common in mattresses in Eurasia (Dermatophagoides pteronyssinus and Dermatophagoides farinae), and two species of stored food mites common in Eurasia (Tyrophagus putrescentiae and Acarus siro). These four species were reared under defined conditions (20° C. and 75% relative humidity). The house dust mites were fed with human flakes (skin and whiskers obtained by cleaning electric shavers) and stored food mites were fed with fish food. The experiments were performed at 20° C. and 40% relative humidity.
(§3) For each of the four species, a group of a mites (10<n<25) was placed in a Petri dish (diameter 5.5 cm). This dish was then recovered by a filter paper that enabled gas-exchange and placed into another dish (diameter 9 cm), in which was placed a piece of paper filter (5×1 cm) impregnated with lavandulol at various concentration (0.18 μL, 3 μL, or 8 μL of pure solution, corresponding respectively to 0.15 mg, 2.5 mg or 6.67 mg of lavandulol), or with water. The bigger of the two dishes was then covered.
(§4) After 24 hours, the number of dead mites were counted. The death of a mite was determined by reaction to a stimulation with a needle: lack of reaction and the persistence of immobility indicated death. This experiment was repeated three times with the four species.
(§5) Observations and counting of mites were made under binocular microscope (magnification 10×). The set-up is illuminated with a cold lamp (KL 1500 LCD, Schott ●), the lighting is symmetric and the light intensity was 50Klux. The experimental conditions were controlled in the room (T° C.: 19-22° C. and RH 40%).

[2] = test system: Dermatophagoides farinae; assay: Toxicity, indirect contact (inhalation, 24 hours)
Description: as §1, §2, §3, §4, §5

[3] = test system: Dermatophagoides pteronyssinus; assay: Toxicity, indirect contact (inhalation, 24 hours)
Description: as §1, §2, §3, §4, §5

[4] = test system: Acarus siro; assay: Toxicity, indirect contact (inhalation, 24 hours)
Description: as §1, §2, §3, §4, §5

[5] = test system: Dermatophagoides farinae; assay: Mini-mattress trap: attraction capabilities of attracting solutions sprayed on felt
Description: (§6) Rearing: The species studied were Dermatophagoides pteronyssinus and Dermatophagoides farinae, house dust mite common in mattresses in Eurasia. Mites are reared in Petri dishes and fed with human skin flakes (skin and whiskers obtained by cleaning electric […]). All mites were reared together under defined conditions (20° C. and 75% relative humidity). The experiments took place in a room kept at 20° C. and 40% relative humidity. Aim of the experiments: The aim was to test the trap in condition similar to the conditions that will be met by the user of the trap. Materials and methods: The mattresses were built at a smaller scale (15× reduction) than usual mattresses. These mini-mattresses are made in polyurethane and covered by a cover in cotton. They were infested with mites since at least 3 months. The fabric was a felt of 20 mg/cm^2 and is a rectangle of 10 cm×20 cm. It was placed on the mini-mattress. Then the attracting solution was sprayed on the fabric with a spray bottle. The fabric was left in place on the mattress during one hour. During this time, the mites moved in the felt. It is very difficult to count directly the mites hidden in the mattress and in the fabric. Therefore, we used a Berlèse funnel which is a device that is usually used to separate insects from litter. Here, it was used to separate the mites from their mattress or from the fabric. The Berlèse funnel uses a light bulb to heat and dry the mattress, thus driving the mites downwards through a screen and into a collecting jar containing some food and some water. […] They are attracted by a source of moisture and the smell of food. The mattress or blanket were therefore placed in the funnel (FIG. 2). The mites went downwards in the direction of the jar, then in the jar. The harvest of the jar containing the mites took place after one day. Mites had then 24 hours to migrate to the jar collector. As a substantial proportion of the population is immobile (moulting mites), trapping is less efficient than it would be otherwise and estimate of population size that is trapped are likely to be biased. To avoid this bias and make a proper assessment of the populations in infested mattresses, mattresses were carefully brushed with a soft brush at the end of the manipulation meaning that immobile mites and eggs also fall into the funnel. Fabric was carefully brushed too. The Berlèze funnel was rinsed with ethanol. Thus, mites still on the inner wall of the funnel were driven by ethanol in the jar collector. At the end of the experiment, the jar contained: the food used as attracting to mites, a small amount of water also used for attracting, mites, and ethanol. The jar was emptied into a Petri dish and we counted mites under binocular. Counting of mites was made under binocular microscope (magnification 10×). The set-up is illuminated with a cold lamp (KL 1500 LCD, Schott ●). The felt was sprayed with different attracting compositions: a solution of lavandulol, a solution of Tween 60, a combination of lavandulol and Tween 60, a solution of citral, and the attracting solution commercialized under the brand name Acar'up were compared at various dilutions.

[6] = test system: Dermatophagoides pteronyssinus; assay: as above
Description: as §6

[7] = test system: Acarus siro; assay: Binary choice test in Petri dish, felt with lavandulol composition versus felt with water
Description: A group of mites (20<n<40) was placed in the center of a Petri dish (diameter 5.5 cm) around which two felt pieces (density of 70 mg/cm^2, thickness of 2 mm) were placed equidistant. The first felt piece was impregnated with water and the other felt piece was impregnated with the lavandulol composition at different dilutions. The diluted lavandulol solutions were prepared from a 90-95% pure lavandulol stock solution (Phytolab, catalog No. 80887). Mites moved spontaneously towards one of the two felt pieces. The number of mites migrating to one side or to the other side was counted and this distribution was compared to a situation where mites were placed in a Petri dish containing two felt pieces impregnated with water. Observations, counting, and identification of mites' species were performed under binocular microscope (magnification 10×). The set-up is illuminated with a cold lamp (KL 1500 LCD, Schott ●), the lighting is symmetric and the light intensity was 50Klux. The experimental conditions were controlled in the room (T° C.: 19-22° C. and RH 40%).

[8] = pure lavandulol volumes of 3 μL and 8 μL
[9] = Dilution 10^−6 (* mixture of a lavandulol solution at 10^−6 and a Tween 60 solution at 10^−6)

C=C(C)C(CO)CC=C(C)C (stereo not drawn) [Lavandulol, 5-Methyl-2-prop-1-en-2-ylhex-4-en-1-ol]
mortality of mites by inhalation ([1]; lavandulol volume of 0.18 μL): not lethal
mortality of mites by inhalation [1, 8]: high mortality
mortality of mites by inhalation ([2]; lavandulol volume of 0.18 μL): not lethal
mortality of mites by inhalation [2, 8]: high mortality
mortality of mites by inhalation ([3]; lavandulol volume of 0.18 μL): not lethal
mortality of mites by inhalation [3, 8]: high mortality
mortality of mites by inhalation ([4]; lavandulol volume of 0.18 μL): not lethal
mortality of mites by inhalation [4, 8]: high mortality
attraction capabilities, percentage of mites ([5]; Dilution 10^−3): 57%
attraction capabilities, percentage of mites ([5]; Dilution 10^−5): 90%
attraction capabilities, percentage of mites [5, 9]: 71%
attraction capabilities, percentage of mites ([5]; Dilution 10^−8): 37%
attraction capabilities, percentage of mites ([5]; Dilution 10^−9): 28%
attraction capabilities, percentage of mites ([5]; Dilution Undiluted): 6%
attraction capabilities, percentage of mites ([6]; Dilution 10^−1): 34%
attraction capabilities, percentage of mites ([6]; Dilution 10^−3): 56%
attraction capabilities, percentage of mites ([6]; Dilution 10^−5): 91%
attraction capabilities, percentage of mites [6, 9]: 64%
attraction capabilities, percentage of mites ([6]; Dilution 10^−8): 46%
attraction capabilities, percentage of mites ([6]; Dilution 10^−9): 55%
attraction capabilities, percentage of mites ([6]; Dilution Undiluted): 8%
Number of mites on the felt piece impregnated with the lavandulol composition ([7]; Dilution 10^−3): 44%
Number of mites on the felt piece impregnated with the lavandulol composition ([7]; Dilution 10^−6): 48%
Number of mites on the felt piece impregnated with the lavandulol composition ([7]; Dilution 10^−9): 40%
Number of mites on the felt piece impregnated with the lavandulol composition ([7]; Dilution 10^−12): 55%
Number of mites on the felt piece impregnated with the lavandulol composition ([7]; Dilution 10^−14): 54%
Number of mites on the felt piece impregnated with the lavandulol composition ([7]; Dilution 10^−16): 50%
Number of mites on the felt piece impregnated with the lavandulol composition ([7]; Dilution Undiluted): 1.1%
attraction of mites (in words) ([7]; at least at a dilution of 10^−3, even more at least at 10^−6): efficiently attracts mites
attraction of mites (in words) ([7]; undiluted solution): fails to attract mites
